Activity calls are given as the source filed them.
Columns and labels:
[1] = biological target: T1, Rac GTPase-activating protein 1 (Homo sapiens, UniProt Q9H0H5); experiment: MgcRacGAP GTPase-activating activity inhibitors, confirmation, biochemical, ADP Hunter fluorescence, primary and confirmatory (AID 624330); type: functional
T1 sequence (Q9H0H5 whole entry): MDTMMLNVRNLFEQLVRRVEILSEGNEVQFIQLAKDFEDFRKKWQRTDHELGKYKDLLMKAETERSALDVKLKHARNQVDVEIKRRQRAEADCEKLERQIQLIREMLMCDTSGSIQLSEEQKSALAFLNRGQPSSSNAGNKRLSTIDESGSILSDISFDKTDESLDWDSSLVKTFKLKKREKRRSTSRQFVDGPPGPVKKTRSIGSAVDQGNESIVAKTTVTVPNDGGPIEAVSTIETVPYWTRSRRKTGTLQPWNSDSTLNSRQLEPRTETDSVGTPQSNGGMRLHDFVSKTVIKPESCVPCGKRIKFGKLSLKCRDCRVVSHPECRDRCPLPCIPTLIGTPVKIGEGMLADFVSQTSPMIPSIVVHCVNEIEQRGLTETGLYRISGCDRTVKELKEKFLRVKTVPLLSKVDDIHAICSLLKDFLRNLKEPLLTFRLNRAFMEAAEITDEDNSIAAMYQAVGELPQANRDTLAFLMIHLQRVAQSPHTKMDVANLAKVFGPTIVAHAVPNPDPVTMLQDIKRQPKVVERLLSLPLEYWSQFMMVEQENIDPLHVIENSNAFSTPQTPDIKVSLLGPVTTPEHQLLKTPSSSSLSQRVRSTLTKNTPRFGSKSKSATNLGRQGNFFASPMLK

[2] = biological target: T2, Heat shock factor protein 1 (Mus musculus, UniProt P38532); experiment: inhibition of MG132-induced HSE-luciferase signal, confirmation, cell-based, NIH3T3, luminescence, dose retest (AID 2382); type: functional;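 note: NIH3T3 fibroblasts with HSF1-driven luciferase reporter stressed by proteasome inhibitor MG132; luminescence from HSF1-driven luciferase expression after 8 hours of MG132 stress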
T2 sequence (P38532 whole entry): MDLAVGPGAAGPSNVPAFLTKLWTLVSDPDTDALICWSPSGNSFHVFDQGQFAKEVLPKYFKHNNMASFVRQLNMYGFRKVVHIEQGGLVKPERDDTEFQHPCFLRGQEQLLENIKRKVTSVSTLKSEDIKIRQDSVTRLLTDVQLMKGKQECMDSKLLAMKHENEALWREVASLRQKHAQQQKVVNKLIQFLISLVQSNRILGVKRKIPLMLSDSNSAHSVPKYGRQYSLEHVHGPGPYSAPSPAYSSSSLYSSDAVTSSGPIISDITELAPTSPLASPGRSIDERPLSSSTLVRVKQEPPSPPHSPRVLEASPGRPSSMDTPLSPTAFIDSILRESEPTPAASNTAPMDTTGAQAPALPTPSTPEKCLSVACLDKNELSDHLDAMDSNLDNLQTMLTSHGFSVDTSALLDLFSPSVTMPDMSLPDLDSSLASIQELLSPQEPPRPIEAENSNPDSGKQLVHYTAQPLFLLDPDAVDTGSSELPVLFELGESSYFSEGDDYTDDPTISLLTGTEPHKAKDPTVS

[3] = cells; type: functional
[4] = biological target: T3, Cytochrome P450 1A2 (Homo sapiens, UniProt P05177);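 note: PubChem cytochrome P450 panel assay, CYP1A2 panel member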
T3 sequence (P05177 whole entry): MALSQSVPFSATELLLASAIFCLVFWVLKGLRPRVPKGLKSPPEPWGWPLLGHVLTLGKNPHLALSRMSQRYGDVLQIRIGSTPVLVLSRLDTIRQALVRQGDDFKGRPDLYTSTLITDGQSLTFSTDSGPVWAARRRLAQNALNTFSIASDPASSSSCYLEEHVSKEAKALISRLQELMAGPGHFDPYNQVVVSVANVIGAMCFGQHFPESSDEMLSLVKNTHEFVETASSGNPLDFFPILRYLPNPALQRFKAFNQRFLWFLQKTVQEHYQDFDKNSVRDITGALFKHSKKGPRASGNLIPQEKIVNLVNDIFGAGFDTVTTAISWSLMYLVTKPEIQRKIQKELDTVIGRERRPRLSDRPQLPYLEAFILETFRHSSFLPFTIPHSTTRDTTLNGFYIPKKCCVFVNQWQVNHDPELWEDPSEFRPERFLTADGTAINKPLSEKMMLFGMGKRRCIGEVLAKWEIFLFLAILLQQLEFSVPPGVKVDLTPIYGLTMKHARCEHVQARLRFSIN

With `CCS(=O)(=O)NC(C)C(c1cccs1)N1CCN(c2ccc(OC)cc2)CC1` (stereo not given) the IC50 [1] was 91.3 µM (active).
In the case of `N#CC1=C(S)N(c2ccc(F)cc2)C(c2ccco2)NC1=O` (stereo not given), the IC50 [1] is reported as 84.4 µM (active).
For `CC(=O)Nc1ccc(N=Nc2ccc(O)cc2)cc1`, the IC50 [1] was 27.1 µM (active).
With `COc1ccccc1NC1=C(Cl)C(=O)N(C2CCCCC2)C1=O` the EC50 [2] was > 195 µM (not active).
With `CCN(CC)c1ccc(NC(=O)C2CCCC2)cc1` the IC50 [1] was 63.5 µM (active).
With `O=C(NC(=S)NCCC1=CCCCC1)c1cncc(Br)c1` the EC50 [2] was > 195 µM (not active).
For `O=[N+]([O-])c1ccc(CN2CCN(c3ccccc3Cl)CC2)o1`, the IC50 [3] was 0.84 µM (active).
In the case of `CN1CCc2cc(Cl)c(O)cc2[C@H](c2ccccc2)C1`, the AC50 [4] is reported as 31.6 µM (inconclusive).
For `O=C(OCc1cccc([N+](=O)[O-])c1)c1ccc2ccccc2n1`, the IC50 [3] was 5.04 µM (active).
For `CCOC(=O)C(=O)NC12CC3CC(CC(C3)C1)C2`, the IC50 [3] was 44.5 µM (active).
In the case of `COc1ccc(Oc2ncc3ncc(=O)n(CCc4ccccc4)c3n2)cc1`, the AC50 [4] is reported as 0.631 µM (inconclusive).
For `COc1ccc(CN2CCNC(=O)C2CC(=O)NC2CC(C)(C)CC(C)(C)C2)cc1OC` (stereo not given), the EC50 [2] was > 195 µM (not active).
With `CCOC(=O)c1cc(-c2csc(COc3ccccc3Cl)n2)on1` the IC50 [3] was 0.4 µM (active).
For `Cc1ccccc1C(=O)Nc1nnc(-c2ccco2)o1`, the IC50 [3] was 5.71 µM (active).
With `O=[N+]([O-])c1ccc(SCCc2ccncc2)cc1` the EC50 [2] was > 195 µM (not active).
